{
  "source": "paper PMC10906223",
  "about": "(JCI Insight, 2024)",
  "target": "T1, EphA4 receptor (Mus musculus, UniProt Q03137)",
  "T1 construct": "purchased R&D Systems 641-A4-200",
  "T1 sequence (Q03137 with tags, fused parts or gaps limits assumed)": "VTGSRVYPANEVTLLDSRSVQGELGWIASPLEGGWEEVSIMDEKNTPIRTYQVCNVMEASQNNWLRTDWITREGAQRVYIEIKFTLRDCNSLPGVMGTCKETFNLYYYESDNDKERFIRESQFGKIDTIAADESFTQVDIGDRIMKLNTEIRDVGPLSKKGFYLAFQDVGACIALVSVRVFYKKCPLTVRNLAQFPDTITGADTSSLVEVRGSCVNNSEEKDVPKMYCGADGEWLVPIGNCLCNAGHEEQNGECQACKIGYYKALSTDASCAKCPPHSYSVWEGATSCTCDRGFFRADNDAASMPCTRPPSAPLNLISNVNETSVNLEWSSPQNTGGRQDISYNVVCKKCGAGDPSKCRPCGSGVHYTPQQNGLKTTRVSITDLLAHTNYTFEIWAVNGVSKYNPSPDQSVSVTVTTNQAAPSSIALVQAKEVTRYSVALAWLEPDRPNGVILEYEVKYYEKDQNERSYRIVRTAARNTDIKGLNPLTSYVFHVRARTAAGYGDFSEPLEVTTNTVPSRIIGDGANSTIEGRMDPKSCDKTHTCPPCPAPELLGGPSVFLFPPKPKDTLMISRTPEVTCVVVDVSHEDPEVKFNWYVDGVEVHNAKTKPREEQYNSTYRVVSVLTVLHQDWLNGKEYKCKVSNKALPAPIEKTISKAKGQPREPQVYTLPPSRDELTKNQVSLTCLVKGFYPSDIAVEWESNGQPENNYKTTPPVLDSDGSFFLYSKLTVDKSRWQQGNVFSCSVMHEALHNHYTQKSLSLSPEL",
  "experiment": "ELISA: competition between WCDD301 and Ephrin-A5 Fc for binding to EphA4",
  "conditions": "for Bound Ephrin (WCDD301, 0.01 µM) / Bound Ephrin (WCDD301, 0.1 µM) / Bound Ephrin (WCDD301, 1 µM): Figure 1E; for Bound Ephrin-A5 (ELISA signal) / AUC of competition curve: Figure 1D; for AUC of competition curve: EphA4 3 μg/mL, mean ± SD",
  "experimental": "Wells of the protein A–coated microplate (Pierce, catalog 15132) were washed using 200 μL of binding buffer (PBS supplemented by 0.01% Tween 20). Recombinant mouse EphA4 Fc chimera protein (R&D Systems, catalog 641-A4-200) was reconstituted in 1× PBS (Genesee, catalog 25-507XB, pH 7.2 ± 0.1), diluted to 3 μg/mL using binding buffer, dispensed (100 μL) in each well, and rocked on a belly dancer shaker (3 hours at room temperature, RT). Following 3 washes in the binding buffer, blocking was done using blocking buffer (5% BSA in binding buffer) for 3 hours at RT. Then, after 5 washes, the reconstituted recombinant mouse Ephrin-A5 Fc (R&D Systems, catalog 7396-EA-050) was added (100 μL) into each well and rocked for 2.5 hours on the shaker (Ephrin-A5 Fc concentrations were used as described in the Results section). After 7 washes using binding buffer, alkaline phosphatase–conjugated antibody against Ephrin-A5 was diluted (1:1,000) in the binding buffer plus 2% BSA, added to each well, and incubated at 4°C, overnight. Conjugation of the anti-EFNA5 antibody (Abnova, catalog H00001946-M02; 0.5 mg/mL; target sequence 114–203) was done using Abcam conjugation kit (catalog ab102850) based on the manufacturer’s instruction. After washing 7 times, p-nitrophenyl phosphate tablet (MilliporeSigma, catalog N1891) was reconstituted in 5 mL of PBS and added to each well (100 μL). Following 1 hour shaking at RT in the dark, reaction was stopped by adding 100 μL of 3N NaOH. OD was read at 405 nm within 5 minutes using the microplate reader (Agilent BioTek Cytation 5).\nWe took following the approaches to assay competition between Ephrin-A5 and WCDD301 for binding to the EphA4 receptor. Wells of the microplate were coated by a fixed level of EphA4 Fc (3.5 pmol/well), and competition experiments with Ephrin-A5 and WCDD301 were performed as listed in Supplemental Tables 3 and 4. We determined the KD value for each condition by means of Michaelis-Menten best fit analysis in GraphPad Prism software version 4. To control for potential interaction between WCDD301 and Ephrin-A5 Fc, we coated wells of a microplate using Ephrin-A5 Fc and then incubated them with or without WCDD301 (0.2 μM).",
  "note": "Values joined by “and” are separate entries in the source; they are usually repeats but may differ in a detail not shown here. Identical values can stand only once.",
  "data": [
    {"smiles": "CC(=O)OCC(N)(COC(C)=O)COC(C)=O", "note": "[WCDD301, 2-(acetoxymethyl)-2-aminopropane-1,3-diyl diacetate]", "values": [
      {"measurement": "Competition with Ephrin-A5 for EphA4", "setting": "AUC analysis", "value": "competes with the natural ligand, Ephrin-A5"},
      {"measurement": "Bound Ephrin (WCDD301, 0.01 µM)", "setting": "Ephrin-A5 Fc 2 nM", "value": "0.051 and 0.05 and 0.052"},
      {"measurement": "Bound Ephrin (WCDD301, 0.1 µM)", "setting": "Ephrin-A5 Fc 2 nM", "value": "0.05 and 0.06"},
      {"measurement": "Bound Ephrin (WCDD301, 1 µM)", "setting": "Ephrin-A5 Fc 2 nM", "value": "0.03 and 0.04"},
      {"measurement": "Bound Ephrin (WCDD301, 0.01 µM)", "setting": "Ephrin-A5 Fc 4 nM", "value": "0.061 and 0.07 and 0.064"},
      {"measurement": "Bound Ephrin (WCDD301, 0.1 µM)", "setting": "Ephrin-A5 Fc 4 nM", "value": "0.062 and 0.064 and 0.07"},
      {"measurement": "Bound Ephrin (WCDD301, 1 µM)", "setting": "Ephrin-A5 Fc 4 nM", "value": "0.04 and 0.05"},
      {"measurement": "Bound Ephrin (WCDD301, 0.01 µM)", "setting": "Ephrin-A5 Fc 8 nM", "value": "0.142 and 0.122 and 0.156"},
      {"measurement": "Bound Ephrin (WCDD301, 0.1 µM)", "setting": "Ephrin-A5 Fc 8 nM", "value": "0.119 and 0.121 and 0.098"},
      {"measurement": "Bound Ephrin (WCDD301, 1 µM)", "setting": "Ephrin-A5 Fc 8 nM", "value": "0.1 and 0.104 and 0.11"},
      {"measurement": "Bound Ephrin (WCDD301, 0.01 µM)", "setting": "Ephrin-A5 Fc 16 nM", "value": "0.18 and 0.189 and 0.209"},
      {"measurement": "Bound Ephrin (WCDD301, 0.1 µM)", "setting": "Ephrin-A5 Fc 16 nM", "value": "0.141 and 0.137 and 0.119"},
      {"measurement": "Bound Ephrin (WCDD301, 1 µM)", "setting": "Ephrin-A5 Fc 16 nM", "value": "0.145 and 0.115 and 0.125"},
      {"measurement": "Bound Ephrin (WCDD301, 0.01 µM)", "setting": "Ephrin-A5 Fc 32 nM", "value": "0.265 and 0.289 and 0.221"},
      {"measurement": "Bound Ephrin (WCDD301, 0.1 µM)", "setting": "Ephrin-A5 Fc 32 nM", "value": "0.21 and 0.269 and 0.243"},
      {"measurement": "Bound Ephrin (WCDD301, 1 µM)", "setting": "Ephrin-A5 Fc 32 nM", "value": "0.234 and 0.189 and 0.171"},
      {"measurement": "Bound Ephrin (WCDD301, 0.01 µM)", "setting": "Ephrin-A5 Fc 64 nM", "value": "0.321 and 0.34 and 0.365"},
      {"measurement": "Bound Ephrin (WCDD301, 0.1 µM)", "setting": "Ephrin-A5 Fc 64 nM", "value": "0.301 and 0.29 and 0.27"},
      {"measurement": "Bound Ephrin (WCDD301, 1 µM)", "setting": "Ephrin-A5 Fc 64 nM", "value": "0.28 and 0.27 and 0.26"},
      {"measurement": "Bound Ephrin-A5 (ELISA signal)", "setting": "WCDD301 0.0625 µM, Ephrin-A5 (2 nM)", "value": "0.1 and 0.12"},
      {"measurement": "Bound Ephrin-A5 (ELISA signal)", "setting": "WCDD301 0.0625 µM, Ephrin-A5 (4 nM), c4-c6", "value": "0.217 and 0.196 and 0.19"},
      {"measurement": "Bound Ephrin-A5 (ELISA signal)", "setting": "WCDD301 0.0625 µM, Ephrin-A5 (4 nM), third group c7-c9", "value": "0.23 and 0.236 and 0.246"},
      {"measurement": "Bound Ephrin-A5 (ELISA signal)", "setting": "WCDD301 0.0625 µM, Ephrin-A5 (8 nM)", "value": "0.237 and 0.247 and 0.265"},
      {"measurement": "Bound Ephrin-A5 (ELISA signal)", "setting": "WCDD301 0.125 µM, Ephrin-A5 (2 nM)", "value": "0.086 and 0.108 and 0.1"},
      {"measurement": "Bound Ephrin-A5 (ELISA signal)", "setting": "WCDD301 0.125 µM, Ephrin-A5 (4 nM), c4-c6", "value": "0.202 and 0.18 and 0.187"},
      {"measurement": "Bound Ephrin-A5 (ELISA signal)", "setting": "WCDD301 0.125 µM, Ephrin-A5 (4 nM), third group c7-c9", "value": "0.208 and 0.216"},
      {"measurement": "Bound Ephrin-A5 (ELISA signal)", "setting": "WCDD301 0.125 µM, Ephrin-A5 (8 nM)", "value": "0.236 and 0.233 and 0.234"},
      {"measurement": "Bound Ephrin-A5 (ELISA signal)", "setting": "WCDD301 0.25 µM, Ephrin-A5 (2 nM)", "value": "0.072 and 0.073 and 0.082"},
      {"measurement": "Bound Ephrin-A5 (ELISA signal)", "setting": "WCDD301 0.25 µM, Ephrin-A5 (4 nM), c4-c6", "value": "0.148 and 0.141 and 0.169"},
      {"measurement": "Bound Ephrin-A5 (ELISA signal)", "setting": "WCDD301 0.25 µM, Ephrin-A5 (4 nM), third group c7-c9", "value": "0.201 and 0.205 and 0.203"},
      {"measurement": "Bound Ephrin-A5 (ELISA signal)", "setting": "WCDD301 0.25 µM, Ephrin-A5 (8 nM)", "value": "0.222 and 0.22 and 0.212"},
      {"measurement": "AUC of competition curve", "setting": "at 2 nM", "value": "0.025 ± 0.0011", "unit": "AU"},
      {"measurement": "AUC of competition curve", "setting": "at 4 nM", "value": "0.0469 ± 0.0014", "unit": "AU"},
      {"measurement": "AUC of competition curve", "setting": "at 6 nM", "value": "0.0554 ± 0.0006", "unit": "AU"},
      {"measurement": "AUC of competition curve", "setting": "at 8 nM", "value": "0.0617 ± 0.0011", "unit": "AU"}
    ]}
  ]
}
